From patent publication US20260256799A1, “INHIBITORS FOR TREATING SOLID TUMOURS” (UNIVERSITY OF SOUTHAMPTON, priority 2023, published 2026)

What was measured:
[1] = monotherapy, dose escalation phase 1; cited from earlier work
[2] = system: HFFF2 fibroblasts; assay: TGF-β1-induced myofibroblast differentiation of fibroblasts (Western blotting, immunofluorescence, Q-RT-PCR, collagen gel contraction); type: cell-based, human
Experimental: Human NSCLC cell line H441, HNSCC SCC25, murine cancer cell line TC-1 (lung), MC38 (colon) and human fetal foreskin fibroblasts HFFF2 were purchased from European Collection of Cell Cultures (Public Health England) or ATCC; HNSCC 5PT [32] were provided by l. Mackenzie (Queen Mary University of London, UK). HEK-293T cells and IMR90 lung fibroblasts were provided by Jesus Gil (Imperial College, London, UK). SCC25 were grown in Ham's F12:DMEM (1:1 ratio) medium with 10% FBS (Calbiochem) and 292 μg/ml L-Glutamine. 5PT were cultured in keratinocyte growth medium. HEK-293T, H441, MC38, HFFF2, IMR90 and primary fibroblasts were grown in DMEM supplemented with 10% FBS and 292 μg/ml L-Glutamine. Primary fibroblasts were isolated as previously used at early passage (p1-10). C57BL/6 murine normal lung and colon fibroblasts (MLF and MCF respectively) were grown at 3% oxygen. TC-1 were cultured in RPMI supplemented with 10% FBS and 292 μg/ml L-Glutamine. All cell cultures were routinely tested for mycoplasma contamination. All cells were cultured using standard cell culture plates/flasks (Corning). HFFF2 or IMR90 cells were transfected with 25 μM On-Target pool siRNA (Thermo Scientific/Dharmacon) using Oligofectamine reagent (Life Technologies) as described. Stable knockdown was performed using retro/lentiviral mediated transduction of shRNA plasmids, as previously described followed by cell selection using 1 μg/ml puromycin for 5-7 days. NOX4-inducible HEK-293 cells (kindly provided by Vincent Jaquet) were treated with 1 μg/ml doxycycline. Wild type and mutant (C2991L) ATM over-expression was carried out transfecting HFFF2 with Viafect (Promega) according to manufacturer's instructions and selected for 10 days with 4 mg/ml G418. p-Retrosuper-shATM (ATM #1:912) and pCDNA3.1-Flag-mut-ATM (C2991L; pTP1625 clone) were kindly provided by Yosef Shiloh and Tanya Paull respectively. pLKO.1 murine shATM (TRCN0000012643) and pCDNA3.1-Flag-wt-ATM (31985) were purchased from Sigma and Addgene respectively. 2 ng/ml TGF-3 (TGF-β1; R&D Systems; for 3 days) was used to induce myofibroblast differentiation. 10 ng/ml IL-1pR (R&D Systems) for 72 hours was used to induce iCAF differentiation. […] All the inhibitors were resuspended in DMSO. To trigger DDR activation and/or cell stress HFFF2 were either irradiated with 2-100Gy using 350Kv X-Ray Irradiation System (Faxitron), or treated with 100 ng/ml Neocarzinostatin for 2 hours (NCS; Sigma), with 2-10 mM H2O2(Fisher Scientific) or with 5 μg/ml Cisplatin (Sandoz) for 30 minutes.
5×10^3 HFFF2 were plated on permanox chamber slides (Thermo Scientific) and treated as described in the figure legends. Immunostaining was performed as previously. DAPI was used as nuclear counterstain and coverslips were mounted using fluorescent mounting solution (Dako). Images were taken using an Olympus IX81 fluorescence microscope and Xcellence program. DNA Damage foci were quantified from at least 8 non-overlapping FoV with ~300 cells in total per condition. Kruskall-Wallis statistical test was used to indicate the presence of a different distribution per time points in each group of foci. For collagen 1A1 deposition, 5×10^3 HFFF2 or MLF were seeded into chamber slides and treated with TGF-β1±inhibitors for a week (treated day 1 & day 4). Decellularisation was performed using 0.25M NH4OH in 50 mM Tris at 37° C. for 30 minutes and slides fixed with ice-cold 100% methanol at −20° C. followed by a blocking step. The remainderwas performed as previously described. SMA and Collagen 1A1 quantification was performed using Fiji. High resolution imaging of mouse tumours was carried out using an Axioscan.Z1 scanner (Zeiss).

[3] = CCT241533 1.5 μM + TGF-β1 72 hours, HFFF2
[4] = CCT241533 1.5 μM + TGF-β1, HFFF2

SMILES: CC(C)n1c(=O)n(C)c2cnc3cc(F)c(-c4ccc(OCCCN5CCCCC5)nc4)cc3c21 [AZD1390]
- adverse effects [1]: not yet reporting to be associated with adverse effects

SMILES: COc1cc2nc(-c3cc(F)ccc3O)nc(N[C@@H]3CNC[C@H]3C(C)(C)O)c2cc1OC [CCT241533]
- TGF-β1-dependent FnEDA expression [2, 3]: suppresses
- TGF-β1-dependent SMA expression [2, 3]: suppresses
- SMA-positive stress fiber formation [2, 4]: suppresses
- collagen deposition [2, 4]: suppresses
